Consider five compounds from patent US10172835B2, “Anticancer agent composition” (J-Pharma Co., Ltd., priority 2014, dated 2019).

Structures can show the parent of a compound that is named as a salt.

The test system of experiment [1] is caspase 3. Description: Western blot of caspase 3 activation and PARP cleavage in primary tPTEN−/− tumor cells (KO#732). Type of experiment: cell-based, murine. The settings on record: primary KO#732 cells; COMPOUND-JP 5.0, 10.0 μM; PI-103 10.0 μM; rapamycin 10.0 nM; 2.0-18.0 h. How it is done:
(§1) Cell extracts were prepared using a cell lysis buffer (50 mM HEPES, pH 7.4, 150 mM NaCl, 20 mM EDTA, 100 mM NaF, 10 mM Na3VO4, 0.5% nonyl phenoxypolyethoxylethanol (NP40) supplemented with a cocktail of protease inhibitors. After SDS-PAGE separation and transfer to nitrocellulose immunoblotting was performed using the following antibodies against: Akt (Cell Signaling Technologies, #9272), CHOP (#2895), cleaved caspase 3 (#9664), c-Myc (#9402), eIF2a (#9721), 4EBP1 (#9644), LC3A/B (#12741), PARP (#9542), pJnk (T183/Y185) (#9251), pSer235-236-S6RP (#4856), pSer473-Akt (#9271), pSer65-4EBP1 (#9451) and S6RP (#2217); Bax (Sigma-Aldrich, B8429); PUMA (Abcam, ab54288); Bak (Millipore, 06536); ATF4 (Santa Cruz Biotechnologies, sc200), GADD34 (sc8327), Hsp60 (sc-1722), Hsp90 (sc-13119) and XBP1 (sc-7160); ATF6 (Imgenex, IMG-273).
(In general: A western blot detects proteins with antibodies after separation by electrophoresis.)

Experiment [2] deals with KO99L cells. The experiment can be described thus: Combination studies with COMPOUND-JP, WST-1 viability, Chou-Talalay combination index. Type of experiment: cell-based, murine. The settings on record: 48 h, suboptimal concentrations, in combination with COMPOUND-JP. In general terms: Tetrazolium dyes change colour on reduction, which living cells bring about.
Description: Combinations were analyzed by ANOVA followed by Tukey's Multiple comparison test to determine significance between experimental groups. The synergism between drugs was analyzed using the Chou-Talalay method. […] P-value <0.05 was accepted as statistically significant (*:p<0.05; **:p<0.01; ***:p<0.001). Analyses were performed using the GraphPAd Prism 3.0 software.
Experiment [3] relates to human Peripheral Blood Lymphocytes. The experiment can be described thus: Proliferative response of human PBL. Type of experiment: cell-based. The settings on record: 1.0 μM, positive inducer of cell death.
Another experiment concerns Bcl2 family members. Description: Western blot of Bcl2 family members, KO99L cells. The format is cell-based, murine. The protocol: as §1
The subject of experiment [4] is caspase 3. The experiment can be described thus: Western blot of caspase 3 activation and PARP cleavage, KO99L cells. Conditions: 50.0 μM. Type of experiment: cell-based, murine. The protocol:
as §1

The subject of experiment [5] is KO99L cells. Description: Cell death by flow cytometry after DAPI staining, KO99L cells. The format is cell-based, murine. Conditions: 50.0 μM. In general terms: Flow cytometry measures light scatter and fluorescence of single cells or particles in a stream.
In a further experiment the test system is CHOP. Description: Western blot of CHOP protein levels, KO99L cells. Type of experiment: cell-based, murine. The settings on record: 50.0 μM. The protocol: as §1
The subject of experiment [6] is KO99L cells. Description: BrdU incorporation Elisa (proliferation) on KO99L cells. The settings on record: 50.0 μM, KO99L cells. The format is cell-based, murine. How it is done:
Two different assays were employed: i) In a 96-well plate format, cells (4.0±0.1×10^4 per well; 100 μL) were incubated with effectors (48 h, 37° C.; n=4 per experiment) and then WST-1 reagent (10 μL; Roche Diagnostics) added to each well of 96-well plates, incubated, and the formazan production was measured at 490 nm; and ii) cells (2.0±0.1×10^4 per well; 100 μL) were incubated with effectors (48 h, 37° C.; n=4 per experiment) and then bromodeoxyuridine reagent (10 μL/well; Roche Diagnostics) was added to each well and incubated (8 h, 37° C.). The cells were then fixed, denatured and incubated with anti-BrdU-conjugated with peroxidase (POD) antibody (100 μL/well). Colorimetric substrate (TMB: tetramethyl-benzidine; 100 μL/well) was added and BrdU incorporation quantified via optical density measurement (450 nm) which corresponds to DNA synthesis and proliferating cells.

In experiment [7] the test system is KO99L cells. Description: Annexin-V / DAPI apoptosis assay, KO99L cells. The format is cell-based, murine. The settings on record: 20.0 μM. The protocol:
Apoptosis assessment was performed by measuring phosphatidyl-serine membrane redistribution via annexin-V-FITC (Invitrogen). Cells (5.0±0.1×10^5 per well; 2.0 mL) were incubated with effectors, and re-suspended in staining solution (110 μL; Annexin-V ( 1/10) and incubated in the dark (15 min, RT). […] Basal apoptosis and necrosis were determined on control untreated cells.

For experiment [8], the system named is HT-29 cell derived from human large intestine cancer. The experiment can be described thus: Tumor growth in nude mouse inoculated subcutaneously with HT-29 cells. The format is in vivo. The protocol: A HT-29 cell was inoculated subcutaneously into a mouse, and the transition of the size of the tumor lump was measured with time from the day on which the tumor has grown to a certain size, when each of COM-JP and 5-FU was used alone or in combination.

Turning to `Oc1cccc(-c2nc(N3CCOCC3)c3oc4ncccc4c3n2)c1` [PI103, 3-[4-(4-Morpholinylpyrido[3′,2′:4,5]furo[3,2-d]pyrimidin-2-yl]phenol hydrochloride, reference compound], the “caspase 3 processing and PARP cleavage (apoptosis)” value in the experiment on caspase 3 [1] was “efficient cell death inducer”. Besides, in the experiment on KO99L cells [2], the “combination effect with COMPOUND-JP on metabolic activity/cell survival (Combination Index)” value is recorded as “less efficient”.

As for `CN[C@@H]1C[C@H]2O[C@@](C)([C@@H]1OC)n1c3ccccc3c3c4c(c5c6ccccc6n2c5c31)C(=O)NC4` [staurosporine, reference compound], the PBL cell proliferation result in experiment [3] is reported as “strongly affected cell proliferation”.

`O=C(C=Cc1ccccc1)NC(NC(=S)Nc1cccc2cccnc12)C(Cl)(Cl)Cl` (centres unmarked) [salubrinal, N-(2,2,2-trichloro-1-(3-(quinolin-8-yl)thioureido)ethyl)cinnamamide, reference compound]: the “COMPOUND-JP induction of Bax, Bak, PUMA and Bim in presence of salubrinal” value in the experiment on Bcl2 family members is listed as “sensitive to inhibition of CHOP by salubrinal”. The “caspase 3 cleavage in presence of COMPOUND-JP” value in the experiment on caspase 3 [4] is given as “decreased caspase 3 cleavage”. The “cell death induced via COMPOUND-JP” value in the experiment with KO99L cells [5] was “rescue KO99L cells against cell death”. For the same compound, the “effect on CHOP induction by COMPOUND-JP (10.0 μM)” value with CHOP is listed as “offset CHOP induction”. Further, in the experiment on KO99L cells [6], the “cell proliferation (BrdU incorporation or cell counting) in presence of COMPOUND-JP” value is “restored cell proliferation”.

`CC(C)[C@H](NC(=O)c1ccc2ccccc2n1)C(=O)N[C@@H](CC(=O)O)C(=O)COc1c(F)cccc1F` [QvD-OPH, reference compound]: the “quantity of apoptotic cells when co-administered with COMPOUND-JP” value in the experiment on KO99L cells [7] was “markedly decreased the quantity of apoptotic cells”.

On to `O=c1[nH]cc(F)c(=O)[nH]1` [5-FU, 5-fluorouracil], for which, in experiment [8] (COM-JP and 5-FU in combination), the “combined effect with COM-JP on tumor growth” value was “additive”. In experiment [8] (compared with untreated control group), the “increase of the tumor, single administration” value is given as “more significant decrease”.
